Experiments:
Conditions in all cases: Compound concentration 10.0 uM
[1] = target: Activated CDC42 kinase 1 (Homo sapiens) (UniProt Q07912); assay: Inhibition of ACK1(h) at 10.0 µM in the Eurofins Kinase panel
[2] = target: G protein-coupled receptor kinase 4 (Homo sapiens) (UniProt P32298); assay: Inhibition of GRK4(h) at 10.0 µM in the Eurofins Kinase panel
[3] = target: Serine/threonine-protein kinase MRCK alpha (Homo sapiens) (UniProt Q5VT25); assay: Inhibition of MRCKalpha(h) at 10.0 µM in the Eurofins Kinase panel
[4] = target: Mitogen-activated protein kinase kinase kinase 11 (Homo sapiens) (UniProt Q16584); assay: Inhibition of MLK3(h) at 10.0 µM in the Eurofins Kinase panel
[5] = target: Serine/threonine-protein kinase 35 (Homo sapiens) (UniProt Q8TDR2); assay: Inhibition of CLIK1(h) at 10.0 µM in the Eurofins Kinase panel
[6] = target: Epidermal growth factor receptor (Homo sapiens) (UniProt P00533); assay: Inhibition of EGFR(h) at 10.0 µM in the Eurofins Kinase panel
[7] = target: Activin receptor type-1 (Homo sapiens) (UniProt Q04771); assay: Inhibition of ALK2(h) at 10.0 µM in the Eurofins Kinase panel
[8] = target: Serine/threonine-protein kinase Chk1 (Homo sapiens) (UniProt O14757); assay: Inhibition of CHK1(h) at 10.0 µM in the Eurofins Kinase panel
[9] = target: Serine-protein kinase ATM (Homo sapiens) (UniProt Q13315); assay: Inhibition of ATM(h) at 10.0 µM in the Eurofins Kinase panel
[10] = target: Vascular endothelial growth factor receptor 2 (Homo sapiens) (UniProt P35968); assay: Inhibition of KDR(h) at 10.0 µM in the Eurofins Kinase panel
[11] = target: Phosphatidylinositol 3-kinase C2 domain-containing subunit gamma (Homo sapiens) (UniProt O75747); assay: Inhibition of PI3KC2g(h) at 10.0 µM in the Eurofins Kinase panel
[12] = target: Ephrin type-A receptor 7 (Homo sapiens) (UniProt Q15375); assay: Inhibition of EphA7(h) at 10.0 µM in the Eurofins Kinase panel
[13] = target: G protein-coupled receptor kinase 6 (Homo sapiens) (UniProt P43250); assay: Inhibition of GRK6(h) at 10.0 µM in the Eurofins Kinase panel
[14] = target: Receptor tyrosine-protein kinase erbB-4 (Homo sapiens) (UniProt Q15303); assay: Inhibition of ErbB4(h) at 10.0 µM in the Eurofins Kinase panel
[15] = target: 5-hydroxytryptamine receptor 2C (Homo sapiens) (UniProt P28335)
[16] = target: BMP-2-inducible protein kinase (Homo sapiens) (UniProt Q9NSY1); assay: Inhibition of BIKe(h) at 10.0 µM in the Eurofins Kinase panel
[17] = target: Serine/threonine-protein kinase 24 (Homo sapiens) (UniProt Q9Y6E0); assay: Inhibition of MST3(h) at 10.0 µM in the Eurofins Kinase panel
[18] = target: Tyrosine-protein kinase Mer (Homo sapiens) (UniProt Q12866); assay: Inhibition of Mer(h) at 10.0 µM in the Eurofins Kinase panel
[19] = target: Death-associated protein kinase 3 (Homo sapiens) (UniProt O43293); assay: Inhibition of ZIPK(h) at 10.0 µM in the Eurofins Kinase panel
[20] = target: Serine/threonine-protein kinase mTOR (Homo sapiens) (UniProt P42345); assay: Inhibition of mTOR(h) at 10.0 µM in the Eurofins Kinase panel
[21] = target: Ephrin type-B receptor 1 (Homo sapiens) (UniProt P54762); assay: Inhibition of EphB1(h) at 10.0 µM in the Eurofins Kinase panel
[22] = target: Serine/threonine-protein kinase PAK 4 (Homo sapiens) (UniProt O96013); assay: Inhibition of PAK4(h) at 10.0 µM in the Eurofins Kinase panel
[23] = target: eIF-2-alpha kinase GCN2 (Homo sapiens) (UniProt Q9P2K8); assay: Inhibition of GCN2(h) at 10.0 µM in the Eurofins Kinase panel
[24] = target: 5-hydroxytryptamine receptor 2B (Homo sapiens) (UniProt P41595)
Sequence of 5-hydroxytryptamine receptor 2B (Homo sapiens) (P41595 whole entry): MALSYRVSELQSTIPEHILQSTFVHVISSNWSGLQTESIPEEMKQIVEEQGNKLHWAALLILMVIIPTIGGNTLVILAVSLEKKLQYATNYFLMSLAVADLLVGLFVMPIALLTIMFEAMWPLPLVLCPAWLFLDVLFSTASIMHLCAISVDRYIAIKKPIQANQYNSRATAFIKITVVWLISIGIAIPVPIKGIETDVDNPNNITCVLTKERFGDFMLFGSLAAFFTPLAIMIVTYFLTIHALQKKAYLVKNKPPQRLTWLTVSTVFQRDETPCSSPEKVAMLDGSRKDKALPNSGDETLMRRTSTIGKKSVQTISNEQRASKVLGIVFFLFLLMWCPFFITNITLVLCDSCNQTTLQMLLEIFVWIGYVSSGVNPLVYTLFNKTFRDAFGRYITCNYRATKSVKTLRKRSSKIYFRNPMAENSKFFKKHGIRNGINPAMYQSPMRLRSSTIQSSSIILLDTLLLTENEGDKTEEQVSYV

[25] = target: Transcription initiation factor TFIID subunit 1-like (Homo sapiens) (UniProt Q8IZX4); assay: Inhibition of TAF1L(h) at 10.0 µM in the Eurofins Kinase panel
Sequence of Transcription initiation factor TFIID subunit 1-like (Homo sapiens) (Q8IZX4 whole entry): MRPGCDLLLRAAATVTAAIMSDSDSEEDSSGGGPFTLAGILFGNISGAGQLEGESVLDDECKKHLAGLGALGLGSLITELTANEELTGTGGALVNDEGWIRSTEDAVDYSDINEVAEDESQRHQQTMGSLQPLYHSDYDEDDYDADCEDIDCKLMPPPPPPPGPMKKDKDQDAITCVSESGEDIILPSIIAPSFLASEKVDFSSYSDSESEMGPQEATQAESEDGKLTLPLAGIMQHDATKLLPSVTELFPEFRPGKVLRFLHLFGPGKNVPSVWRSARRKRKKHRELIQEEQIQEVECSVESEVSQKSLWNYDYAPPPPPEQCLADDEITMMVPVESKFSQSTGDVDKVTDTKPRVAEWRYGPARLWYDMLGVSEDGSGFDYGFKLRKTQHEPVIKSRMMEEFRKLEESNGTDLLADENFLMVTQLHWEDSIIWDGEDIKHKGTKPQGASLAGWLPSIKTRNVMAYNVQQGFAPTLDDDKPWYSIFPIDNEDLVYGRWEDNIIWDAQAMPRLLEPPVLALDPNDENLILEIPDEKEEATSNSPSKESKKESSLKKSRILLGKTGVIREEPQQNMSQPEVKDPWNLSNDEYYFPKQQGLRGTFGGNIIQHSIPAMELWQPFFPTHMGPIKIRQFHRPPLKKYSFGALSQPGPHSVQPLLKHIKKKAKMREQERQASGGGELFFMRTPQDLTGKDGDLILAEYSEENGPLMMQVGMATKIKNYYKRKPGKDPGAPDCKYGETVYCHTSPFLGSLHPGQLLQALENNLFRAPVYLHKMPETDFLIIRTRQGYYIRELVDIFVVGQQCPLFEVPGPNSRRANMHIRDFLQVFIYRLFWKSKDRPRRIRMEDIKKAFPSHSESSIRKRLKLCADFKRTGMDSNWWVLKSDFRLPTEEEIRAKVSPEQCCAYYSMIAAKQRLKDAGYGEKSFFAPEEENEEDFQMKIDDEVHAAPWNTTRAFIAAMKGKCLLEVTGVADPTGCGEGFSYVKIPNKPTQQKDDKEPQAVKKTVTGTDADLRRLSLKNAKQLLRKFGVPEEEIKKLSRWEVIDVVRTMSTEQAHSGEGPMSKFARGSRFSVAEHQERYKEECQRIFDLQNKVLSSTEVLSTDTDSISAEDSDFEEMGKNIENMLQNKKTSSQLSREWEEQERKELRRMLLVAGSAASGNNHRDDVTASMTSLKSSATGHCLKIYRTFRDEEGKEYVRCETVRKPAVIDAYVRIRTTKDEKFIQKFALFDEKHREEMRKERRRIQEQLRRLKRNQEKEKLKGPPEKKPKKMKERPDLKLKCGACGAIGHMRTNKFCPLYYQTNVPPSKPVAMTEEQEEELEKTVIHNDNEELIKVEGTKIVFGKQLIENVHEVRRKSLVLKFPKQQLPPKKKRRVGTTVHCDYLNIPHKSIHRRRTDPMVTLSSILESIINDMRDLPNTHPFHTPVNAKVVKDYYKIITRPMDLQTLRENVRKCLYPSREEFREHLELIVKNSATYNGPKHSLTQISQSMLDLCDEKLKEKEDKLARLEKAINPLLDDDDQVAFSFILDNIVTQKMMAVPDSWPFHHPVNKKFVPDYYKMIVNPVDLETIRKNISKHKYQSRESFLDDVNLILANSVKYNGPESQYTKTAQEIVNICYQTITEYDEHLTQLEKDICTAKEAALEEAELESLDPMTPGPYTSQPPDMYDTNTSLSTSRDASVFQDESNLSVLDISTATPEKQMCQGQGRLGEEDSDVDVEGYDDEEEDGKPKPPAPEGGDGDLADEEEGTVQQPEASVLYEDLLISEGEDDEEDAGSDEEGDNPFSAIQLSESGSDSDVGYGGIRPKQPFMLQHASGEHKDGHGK

[26] = target: Kappa-type opioid receptor (Homo sapiens, UniProt P41145)
[27] = target: D(1A) dopamine receptor (Homo sapiens) (UniProt P21728)
[28] = target: MAP kinase-interacting serine/threonine-protein kinase 2 (Homo sapiens) (UniProt Q9HBH9); assay: Inhibition of Mnk2(h) at 10.0 µM in the Eurofins Kinase panel
[29] = target: Maternal embryonic leucine zipper kinase (Homo sapiens) (UniProt Q14680); assay: Inhibition of MELK(h) at 10.0 µM in the Eurofins Kinase panel
Sequence of Maternal embryonic leucine zipper kinase (Homo sapiens) (Q14680 whole entry, looked up): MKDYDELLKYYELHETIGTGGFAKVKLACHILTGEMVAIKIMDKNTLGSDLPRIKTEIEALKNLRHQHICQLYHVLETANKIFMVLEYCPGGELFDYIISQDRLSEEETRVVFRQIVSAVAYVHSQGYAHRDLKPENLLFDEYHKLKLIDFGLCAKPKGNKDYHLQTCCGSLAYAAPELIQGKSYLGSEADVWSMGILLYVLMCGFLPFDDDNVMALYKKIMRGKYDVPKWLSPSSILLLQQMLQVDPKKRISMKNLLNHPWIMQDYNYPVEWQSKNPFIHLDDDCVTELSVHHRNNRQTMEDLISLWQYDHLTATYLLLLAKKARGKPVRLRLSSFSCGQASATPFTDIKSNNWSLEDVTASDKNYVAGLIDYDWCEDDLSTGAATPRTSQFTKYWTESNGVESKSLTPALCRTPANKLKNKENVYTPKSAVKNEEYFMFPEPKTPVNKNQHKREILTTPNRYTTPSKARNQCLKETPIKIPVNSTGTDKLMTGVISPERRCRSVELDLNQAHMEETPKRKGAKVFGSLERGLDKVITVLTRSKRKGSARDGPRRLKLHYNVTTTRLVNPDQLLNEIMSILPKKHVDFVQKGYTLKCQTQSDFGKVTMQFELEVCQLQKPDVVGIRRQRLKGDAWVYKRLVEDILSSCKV

[30] = target: Serine/threonine-protein kinase A-Raf (Homo sapiens) (UniProt P10398); assay: Inhibition of A-Raf(h) at 10.0 µM in the Eurofins Kinase panel
[31] = target: Proto-oncogene tyrosine-protein kinase ROS (Homo sapiens) (UniProt P08922); assay: Inhibition of Ros(h) at 10.0 µM in the Eurofins Kinase panel
[32] = target: Mitogen-activated protein kinase kinase kinase 7 (Homo sapiens) (UniProt O43318); assay: Inhibition of TAK1(h) at 10.0 µM in the Eurofins Kinase panel
Sequence of Mitogen-activated protein kinase kinase kinase 7 (Homo sapiens) (O43318 whole entry): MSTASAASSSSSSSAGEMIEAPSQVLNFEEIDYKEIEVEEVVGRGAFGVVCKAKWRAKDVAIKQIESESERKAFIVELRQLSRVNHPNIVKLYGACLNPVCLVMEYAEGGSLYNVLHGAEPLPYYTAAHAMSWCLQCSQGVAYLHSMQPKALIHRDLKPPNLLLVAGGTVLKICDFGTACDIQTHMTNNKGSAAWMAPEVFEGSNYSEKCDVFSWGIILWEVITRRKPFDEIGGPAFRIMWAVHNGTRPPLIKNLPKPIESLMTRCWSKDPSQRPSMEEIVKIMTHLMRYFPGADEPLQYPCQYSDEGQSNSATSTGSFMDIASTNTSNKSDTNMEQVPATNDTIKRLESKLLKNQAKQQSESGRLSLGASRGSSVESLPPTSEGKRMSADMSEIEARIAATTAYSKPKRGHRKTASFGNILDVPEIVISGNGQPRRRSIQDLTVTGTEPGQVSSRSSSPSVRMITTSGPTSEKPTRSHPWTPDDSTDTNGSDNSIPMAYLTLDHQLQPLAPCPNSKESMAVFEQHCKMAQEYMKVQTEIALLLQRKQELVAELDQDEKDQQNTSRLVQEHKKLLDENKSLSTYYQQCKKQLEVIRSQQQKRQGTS

[33] = target: Serine/threonine-protein kinase Nek11 (Homo sapiens) (UniProt Q8NG66); assay: Inhibition of NEK11(h) at 10.0 µM in the Eurofins Kinase panel
[34] = target: Histamine H4 receptor (Homo sapiens) (UniProt Q9H3N8)
Sequence of Histamine H4 receptor (Homo sapiens) (Q9H3N8 whole entry): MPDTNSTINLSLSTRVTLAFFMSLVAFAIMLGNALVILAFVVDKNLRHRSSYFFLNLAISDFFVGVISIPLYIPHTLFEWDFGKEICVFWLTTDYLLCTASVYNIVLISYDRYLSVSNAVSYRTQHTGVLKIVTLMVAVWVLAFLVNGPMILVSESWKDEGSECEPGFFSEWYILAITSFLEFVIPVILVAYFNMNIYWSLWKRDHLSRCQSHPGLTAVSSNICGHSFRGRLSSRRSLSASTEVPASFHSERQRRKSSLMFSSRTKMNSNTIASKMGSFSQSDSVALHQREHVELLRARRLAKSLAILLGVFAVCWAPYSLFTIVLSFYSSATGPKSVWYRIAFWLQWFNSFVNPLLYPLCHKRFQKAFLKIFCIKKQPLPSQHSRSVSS

[35] = target: Dual specificity mitogen-activated protein kinase kinase 6 (Homo sapiens) (UniProt P52564); assay: Inhibition of MKK6(h) at 10.0 µM in the Eurofins Kinase panel
[36] = target: D(2) dopamine receptor (Homo sapiens) (UniProt P14416)
[37] = target: GABA-A receptor; anion channel (Rattus norvegicus) (UniProt O09028+P15431+P18506+P18508+P19969+P20236+P23574+P23576+P28471+P28473+P30191+P62813+P63079+P63138+Q91ZM7+Q9ES14)
[38] = target: Serine/threonine-protein kinase DCLK1 (Homo sapiens) (UniProt O15075); assay: Inhibition of DCAMKL1(h) at 10.0 µM in the Eurofins Kinase panel

Sequence of Activated CDC42 kinase 1 (Homo sapiens) (Q07912 whole entry, looked up): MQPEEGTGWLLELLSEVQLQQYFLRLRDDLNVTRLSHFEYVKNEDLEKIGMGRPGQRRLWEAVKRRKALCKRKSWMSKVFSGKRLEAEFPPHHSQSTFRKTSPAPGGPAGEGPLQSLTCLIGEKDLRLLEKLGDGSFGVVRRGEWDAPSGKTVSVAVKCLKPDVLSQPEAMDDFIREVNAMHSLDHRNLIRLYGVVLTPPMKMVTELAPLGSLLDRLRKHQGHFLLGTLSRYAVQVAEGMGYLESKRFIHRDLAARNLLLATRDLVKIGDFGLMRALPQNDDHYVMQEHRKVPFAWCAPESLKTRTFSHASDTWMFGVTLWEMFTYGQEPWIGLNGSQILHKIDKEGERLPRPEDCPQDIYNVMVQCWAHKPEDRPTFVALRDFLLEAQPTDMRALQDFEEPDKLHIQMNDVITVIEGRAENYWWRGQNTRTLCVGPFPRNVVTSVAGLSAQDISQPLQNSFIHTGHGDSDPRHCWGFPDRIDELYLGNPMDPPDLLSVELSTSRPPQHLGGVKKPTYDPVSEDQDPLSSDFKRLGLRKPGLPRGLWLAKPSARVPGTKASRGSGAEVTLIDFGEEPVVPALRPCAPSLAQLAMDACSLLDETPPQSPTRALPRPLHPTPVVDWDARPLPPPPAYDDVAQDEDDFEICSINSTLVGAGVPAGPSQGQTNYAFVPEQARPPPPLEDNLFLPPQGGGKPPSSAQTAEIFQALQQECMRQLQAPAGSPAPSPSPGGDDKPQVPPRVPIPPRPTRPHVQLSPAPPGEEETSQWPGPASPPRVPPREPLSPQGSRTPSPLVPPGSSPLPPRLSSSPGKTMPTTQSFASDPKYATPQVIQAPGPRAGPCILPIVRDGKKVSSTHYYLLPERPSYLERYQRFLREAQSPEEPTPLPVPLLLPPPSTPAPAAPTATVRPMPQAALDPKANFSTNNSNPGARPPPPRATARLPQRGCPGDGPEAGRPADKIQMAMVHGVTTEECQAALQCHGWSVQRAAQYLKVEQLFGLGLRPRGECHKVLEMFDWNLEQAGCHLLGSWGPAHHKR

Row | SMILES | inhibition [1] [%] | inhibition [2] [%] | inhibition [3] [%] | inhibition [4] [%] | inhibition [5] [%] | inhibition [6] [%] | inhibition [7] [%] | inhibition [8] [%] | inhibition [9] [%] | inhibition [10] [%] | inhibition [11] [%] | inhibition [12] [%] | inhibition [13] [%] | inhibition [14] [%] | inhibition [15] [%] | inhibition [16] [%] | inhibition [17] [%] | inhibition [18] [%] | inhibition [19] [%] | inhibition [20] [%] | further results
1 | O=c1n(Cc2cncn2-c2cccc(Cl)c2)nc(-c2ccc(Cl)cc2)n1C[C@H](O)C(F)(F)F | 8.43 | -1.52 | -4.95 | 14.9 | 7.34 | -4.73 | -2.29 | 1.73 | -1.92 | -2.77 | 6.58 | 3.37 | -0.21 | -8.65 | -1 | -1.55 | 5.64 | -6.11 | 1.49 | 5.25 | inhibition [21]: 9.79%; inhibition [22]: -2.41%; inhibition [23]: 12.4%; inhibition [24]: 7.98%; inhibition [25]: -2.39%; inhibition [26]: 10%; inhibition [27]: -6%; inhibition [28]: -0.78%; inhibition [29]: 8.95%; inhibition [30]: 2.57%; inhibition [31]: 3.23%; inhibition [32]: -1.55%; inhibition [33]: 15.8%; inhibition [34]: 0.51%; inhibition [35]: 5.77%; inhibition [36]: -3%; inhibition [37]: -1%; inhibition [38]: -2.6%
2 | C[C@H](O)c1nc(Cn2nc(-c3ccc(Cl)cc3)n(C[C@H](O)C(F)(F)F)c2=O)nn1-c1cccc(Cl)c1 [PECAVAPTAN] | -1.31 | -0.06 | -2.43 | 11.3 | 9.3 | -5.82 | -2.51 | 2.42 | 1.99 | 1.28 | 6.41 | 4.11 | 1.15 | -4.41 | 20 | -0.71 | 3.02 | -0.91 | -5.08 | -1.45 | inhibition [21]: 4.68%; inhibition [22]: -1.84%; inhibition [23]: 13.1%; inhibition [24]: 13.1%; inhibition [25]: 2.81%; inhibition [26]: 19%; inhibition [27]: 1%; inhibition [28]: 3.54%; inhibition [29]: 10.8%; inhibition [30]: 1.05%; inhibition [31]: -1.01%; inhibition [32]: -6.39%; inhibition [33]: 16.2%; inhibition [34]: -1.47%; inhibition [35]: 7.34%; inhibition [36]: 14%; inhibition [37]: -1%; inhibition [38]: -1.32%

Reference: ChEMBL document CHEMBL5463729, “Data for DCP probe BAY 1753011” (2023)
